In series [1] the test system is methicillin-resistant S. aureus MIKROBANK 14.001. Nature of the series: Broth microdilution MIC, methicillin-resistant S. aureus. The format is cell-based, Staphylococcus aureus. Conditions: methicillin-resistant strain, 18 h, 35 °C; for MIC: Staphylococcus aureus, read-out: Minimal inhibitory concentration MIC, Staphylococcus aureus MIKROBANK 14.001. As to the method: (§1) Newly synthesised compounds’ antibacterial activities were tested in vitro against six aerobic bacteria reference strains: three Gram-positive (Staphylococcus aureus ATCC 25923, methicillin-resistant S. aureus MIKROBANK 14.001 reference strain from National Medicines Institute in Warsaw, and Staphylococcus epidermidis ATCC 12228) and three Gram-negative (Escherichia coli ATCC 25922, Proteus mirabilis ATCC 12453, and Pseudomonas aeruginosa ATCC 9027).
(§2) Bacterial cell suspensions equivalent to 0.5 McFarland (1.5 × 10^8 CFU/ml) were prepared in 0.85% sterile saline. Tested compounds’ stock solutions (50 mg/ml) were dissolved in dimethyl sulphoxide (DMSO).
(§3) Bacteria strain susceptibility to tested agents was determined by broth microdilution method. Broth microdilution method was carried out in accordance with Clinical and Laboratory Standards Institute recommendations and was used as reference method. Mueller–Hinton broth containing two-fold dilutions of the tested substances (at concentrations ranging from 3.91 to 1000 µg/ml) was used to determine their minimal inhibitory concentration (MIC) which is the lowest concentration of an antibacterial that will inhibit the visible growth of a microorganism after 18 h of incubation). Mueller–Hinton broth is recommended as the medium of choice for susceptibility testing of commonly isolated, rapidly growing aerobic, or facultative organisms. Gentamicin (KRKA, Slovenia), an aminoglycoside antibiotic active against a wide range of human bacterial infections, mostly Gram-negative bacteria including Pseudomonas, Proteus, Serratia, and the Gram-positive Staphylococcus, was used as a control antibacterial agent (at concentration from 0.12 µg to 1000 µg).
(§4) Tested compounds two-fold dilutions in Mueller–Hinton broth without bacteria were blank control wells (incubated on equal conditions). Polystyrene trays containing 96 wells were filled with serial two-fold Mueller–Hinton broth dilutions of tested agents. Next, the broth was inoculated with 20 μl of 0.5 McFarland microbial suspension (previously diluted 1:10 by Mueller–Hinton broth). Total volume per each well was 200 μl. After incubation (at 35 °C for 18 h), bacterial cultures’ optical density was measured by microplate reader (BioTek Synergy H4 Hybrid Reader) at 600 nm. The MIC values were determined by the comparison of broth bacterial culture OD600 containing tested concentrations of examined substances to blank control wells.
(In general: Dilution methods test growth across graded concentrations, often in twofold steps.)

Series [2] relates to Staphylococcus epidermidis ATCC 12228. Description: Broth microdilution MIC, S. epidermidis ATCC 12228. The format is cell-based. Conditions: 35 °C; for MIC: Staphylococcus epidermidis, ATCC12228, 18 h, read-out: Minimal inhibitory concentration MIC, Staphylococcus epidermidis 12228. As to the method: as §1, §2, §3, §4
Series [3] concerns Staphylococcus aureus ATCC 25923. Description: Broth microdilution MIC, S. aureus ATCC 25923. The format is cell-based. Conditions: 35 °C; for MIC: Staphylococcus aureus, ATCC25923, 18 h, read-out: Minimal inhibitory concentration MIC, Staphylococcus aureus 25923. As to the method: as §1, §2, §3, §4
Series [4] relates to normal human skin fibroblasts (BJ). Nature of the series: MTT assay, normal fibroblasts BJ. The format is cell-based. Conditions: Skin fibroblast, 48 h exposure, read-out: IC50 [µg/ml] ± SEM, BJ. As to the method: (§5) The experiment was carried out using normal human skin fibroblasts (BJ) and tumour cell lines: human lung carcinoma (A549), human hepatocellular carcinoma (HepG2), and human breast adenocarcinoma (MCF-7). All cell lines were obtained from ATCC (American Type Culture Collection, England, UK) and cultured in the appropriate, recommended by ATCC, culture medium, additionally supplemented with 10% foetal bovine serum and antibiotics: 100 U/ml penicillin and 100 µg/ml streptomycin. The cells were maintained at 37 °C in a humidified atmosphere of 5% CO2 and 95% air. Antiproliferative activity of the new compounds was assessed by, commonly used for this purpose, colorimetric MTT assay. Cells with active mitochondrial dehydrogenases reduced intracellularly the tetrazolium dye into purple formazan, which is proportional to the number of viable cells. The cells were seeded in 96-multiwell plates in 100 μl of the appropriate complete culture medium at a concentration of 7 × 10^3 cells/well in the case of BJ cells (normal fibroblasts), 1 × 10^4 cells/well in the case of A549 cells (lung cancer), 1.5 × 10^4 cells/well in the case of HepG2 cells (liver cancer), and 2 × 10^4 cells/well in the case of MCF-7 cells (breast cancer) so as to obtain 60–70% confluent culture after 24 h of incubation at 37 °C – the cells are then in the log (logarithmic) phase, during a period of active proliferation, but still have an unoccupied space to divide. Afterwards, the culture medium was discarded and replaced with 100 µl of different concentrations of new tested compounds and reference antiproliferative agent: irinotecan. The stock solutions of the compounds were prepared in DMSO, and solvent control was being tested concurrently to exclude toxicity attributed to DMSO. Ten serial two-fold dilutions using culture medium were performed to prepare different concentrations of the tested compounds, and the highest tested concentration was 200 µg/ml. Untreated cells (maintained in the complete culture medium) served as a negative control. After exposing cells for 48 h to the tested derivatives, the MTT assay was performed as described earlier. Three independent experiments (n = 3) were performed in a quadruplicate. The obtained data were analysed using GraphPad Prism 5, version 5.03 software (La Jolla, CA). […] Moreover, safety index (SI) was calculated using the following formula: SI=IC50normal cells (BJ)/IC50cancer cells
On the technique in general: Tetrazolium assays rely on reduction of a dye to a coloured formazan, in cell work by metabolically active cells.

The subject of series [5] is human breast adenocarcinoma (MCF-7). Description: MTT antiproliferative assay, MCF-7 cells. The format is cell-based. As to conditions: for IC50: Homo sapiens, MCF7, MCF-7 cells, MTT, 48 h exposure, read-out: IC50 [µg/ml] ± SEM, MCF-7; for SI [IC50BJ/IC50], MCF-7: safety index = IC50 normal cells (BJ)/IC50 MCF-7. As to the method:
as §5

Series [6] concerns human hepatocellular carcinoma (HepG2). Description: MTT antiproliferative assay, HepG2 cells. The format is cell-based. As to conditions: for IC50: Homo sapiens, HepG2 cells, MTT, 48 h exposure, read-out: IC50 [µg/ml] ± SEM, HepG2; for SI [IC50BJ/IC50], HepG2: safety index = IC50 normal cells (BJ)/IC50 HepG2. As to the method: as §5
Series [7] has as its system human lung carcinoma (A549). Nature of the series: MTT antiproliferative assay, A549 cells. The format is cell-based. As to the method: as §5

Converted amounts (≈) assume the structure as drawn.

As to `O=C(CC1SC(=O)NC1=O)Oc1cccc(C=NNC(=O)c2cccc(Cl)c2)c1` (stereo not shown) [Compound 12, 3-{[2-(3-Chlorobenzoyl)hydrazinylidene]methyl}phenyl (2,4-dioxo-1,3-thiazolidin-5-yl)acetate], the melting point – broadly, the temperature of the solid-liquid transition – fell in the range of 244 to 245 °C. Also, the MIC in series [1] stood at 500 µg/mL. Besides, the MIC in series [2] amounted to 500 µg/mL. Also, in series [3], the MIC was 500 µg/mL.

For `O=C(CC1SC(=O)NC1=O)Oc1cccc(C=NNC(=O)c2ccc(Cl)cc2Cl)c1` (stereo not shown) [Compound 13, 3-{[2-(2,4-Dichlorobenzoyl)hydrazinylidene]methyl}phenyl (2,4-dioxo-1,3-thiazolidin-5-yl)acetate], the melting point was 198 to 200 °C. In addition, in series [1], the MIC is 500 µg/mL. For the same compound, the MIC in series [2] worked out at 500 µg/mL. Besides, the MIC in series [3] worked out at 500 µg/mL.

In turn, `O=C(CC1SC(=O)NC1=O)Oc1ccc(C=NNC(=O)c2cccc(Cl)c2)cc1` (stereo not shown) [Compound 14, 4-{[2-(3-Chlorobenzoyl)hydrazinylidene]methyl}phenyl (2,4-dioxo-1,3-thiazolidin-5-yl)acetate] came in with a melting point of 215 to 216 °C.

In turn, `O=C(CC1SC(=O)NC1=O)Oc1ccc(C=NNC(=O)c2ccc(Cl)cc2Cl)cc1` (stereo not shown) [Compound 15, 4-{[2-(2,4-Dichlorobenzoyl)hydrazinylidene]methyl}phenyl (2,4-dioxo-1,3-thiazolidin-5-yl)acetate] came in with a melting point of 196 to 198 °C. Besides, the MIC in series [1] worked out at 500 µg/mL. The MIC in series [2] is 500 µg/mL. In addition, the MIC in series [3] is 500 µg/mL.

`COc1cc(C=NNC(=O)c2cccc(Cl)c2)ccc1OC(=O)CC1SC(=O)NC1=O` (stereo not shown) [Compound 16, 4-{[2-(3-Chlorobenzoyl)hydrazinylidene]methyl}-2-methoxyphenyl (2,4-dioxo-1,3-thiazolidin-5-yl)acetate] yielded a melting point of 220 to 222 °C. For the same compound, the IC50 in series [4] is 163.3 ± 1.34 µg/mL (≈ 354 µM). In series [5], the IC50 was determined as 117 ± 1.23 µg/mL (≈ 254 µM) and the “SI [IC50BJ/IC50], MCF-7” value is given as 1.39.

`COc1cc(C=NNC(=O)c2ccc(Cl)cc2Cl)ccc1OC(=O)CC1SC(=O)NC1=O` (stereo not shown) [Compound 17, 4-{[2-(2,4-Dichlorobenzoyl)hydrazinylidene]methyl}-2-methoxyphenyl (2,4-dioxo-1,3-thiazolidin-5-yl)acetate] gave a melting point of 186 to 188 °C. For the same compound, the MIC in series [1] is 250 µg/mL. Moreover, the MIC in series [2] stood at 500 µg/mL. In series [3], the MIC came to 250 µg/mL.

For the compound `O=C(C=C1SC(=O)NC1=O)Oc1cccc(C=NNC(=O)c2cccc(Cl)c2)c1` [Compound 19, 3-{[2-(3-Chlorobenzoyl)hydrazinylidene]methyl}phenyl (2,4-dioxo-1,3-thiazolidin-5-ylidene)acetate], the melting point fell in the range of 282 to 283 °C.

On to `O=C(C=C1SC(=O)NC1=O)Oc1ccc(C=NNC(=O)c2cccc(Cl)c2)cc1` [Compound 20, 4-{[2-(3-Chlorobenzoyl)hydrazinylidene]methyl}phenyl (2,4-dioxo-1,3-thiazolidin-5-ylidene)acetate], for which the melting point was in the range of 278 to 279 °C. Besides, the IC50 in series [4] turned out to be 11.3 ± 1.05 µg/mL (≈ 26.4 µM). In series [6], the IC50 turned out to be 27 ± 1.02 µg/mL (≈ 62.7 µM) and the “SI [IC50BJ/IC50], HepG2” value was found to be 0.42.

In turn, `COc1cc(C=NNC(=O)c2cccc(Cl)c2)ccc1OC(=O)C=C1SC(=O)NC1=O` [Compound 21, 4-{[2-(3-Chlorobenzoyl)hydrazinylidene]methyl}-2-methoxyphenyl (2,4-dioxo-1,3-thiazolidin-5-ylidene)acetate] returned a melting point of 246 to 248 °C. Moreover, in series [4], the IC50 came to 31.4 ± 1.08 µg/mL (≈ 68.3 µM). Also, in series [5], the IC50 stood at 124 ± 1.63 µg/mL (≈ 270 µM) and the “SI [IC50BJ/IC50], MCF-7” value is 0.25. For the same compound, in series [6], the IC50 was 48.4 ± 1.02 µg/mL (≈ 105 µM) and the “SI [IC50BJ/IC50], HepG2” value came to 0.65.

Take `O=C(CC1SC(=O)NC1=O)Oc1ccc(C=NNC(=S)Nc2ccccc2)cc1` (stereo not shown) [Compound 25, 4-{[2-(Phenylcarbamothioyl)hydrazinylidene]methyl}phenyl (2,4-dioxo-1,3-thiazolidin-5-yl)acetate]: the melting point was 159 to 162 °C. Besides, in series [1], the MIC is 250 µg/mL. Moreover, in series [2], the MIC was determined as 250 µg/mL. In series [3], the MIC came to 250 µg/mL.

`COc1cc(C=NNC(=S)Nc2ccccc2)ccc1OC(=O)CC1SC(=O)NC1=O` (stereo not shown) [Compound 26, 2-Methoxy-4-{[2-(phenylcarbamothioyl)hydrazinylidene]methyl}phenyl (2,4-dioxo-1,3-thiazolidin-5-yl)acetate] came in with a melting point of 182 to 184 °C.

`O=C(C=C1SC(=O)NC1=O)Oc1ccc(C=NNC(=S)Nc2ccccc2)cc1` [Compound 27, 4-{[2-(Phenylcarbamothioyl)hydrazinylidene]methyl}phenyl (2,4-dioxo-1,3-thiazolidin-5-ylidene)acetate] came in with a melting point of 199 to 202 °C. Further, in series [1], the MIC stood at 125 µg/mL and the “Minimal inhibitory concentration MIC, Staphylococcus aureus MIKROBANK 14.001” value worked out at 125 µg/mL. Further, in series [2] (18 h), the “Minimal inhibitory concentration MIC, Staphylococcus epidermidis 12228” value was 125 µg/mL. Besides, the MIC in series [2] was 125 µg/mL. Moreover, the “Minimal inhibitory concentration MIC, Staphylococcus aureus 25923” value in series [3] (18 h) was determined as 125 µg/mL. In addition, the MIC in series [3] turned out to be 125 µg/mL.

As for `COc1cc(C=NNC(=S)Nc2ccccc2)ccc1OC(=O)C=C1SC(=O)NC1=O` [Compound 28, 2-Methoxy-4-{[2-(phenylcarbamothioyl)hydrazinylidene]methyl}phenyl (2,4-dioxo-1,3-thiazolidin-5-ylidene)acetate], the melting point fell in the range of 186 to 187 °C. The MIC in series [1] worked out at 125 µg/mL. Besides, the MIC in series [2] is 125 µg/mL. The MIC in series [3] was found to be 125 µg/mL.

In the case of `CCc1c2c(nc3ccc(OC(=O)N4CCC(N5CCCCC5)CC4)cc13)-c1cc3c(c(=O)n1C2)COC(=O)[C@]3(O)CC` [Irinotecan, irinotecan, reference compound], the IC50 in series [4] was determined as 38.7 ± 1.37 µg/mL (≈ 65.9 µM); in series [7] (Homo sapiens, A549 cells, MTT, 48 h exposure, read-out: IC50 [µg/ml] ± SEM, A549) it was 39.7 ± 1.2 µg/mL (≈ 67.7 µM); in series [5] it was 21.1 ± 1.23 µg/mL (≈ 35.9 µM); in series [6] it was 14.8 ± 1.24 µg/mL (≈ 25.2 µM). Moreover, in series [7] (safety index = IC50 normal cells (BJ)/IC50 A549), the “SI [IC50BJ/IC50], A549” value was determined as 0.97. Further, the “SI [IC50BJ/IC50], MCF-7” value in series [5] is recorded as 1.84. The “SI [IC50BJ/IC50], HepG2” value in series [6] worked out at 2.62.

These data come from paper PMC6010082, “Synthesis and in vitro antiproliferative and antibacterial activity of new thiazolidine-2,4-dione derivatives” (Journal of Enzyme Inhibition and Medicinal Chemistry, 2017).
